Measured values: US9738634B2, “Heterocyclic amide compound and herbicide” (SYNGENTA PARTICIPATIONS AG, priority 2013, dated 2017)

Experiments:
Type in all cases: in vivo
Conditions in all cases: treatment dosage 315 g/ha
Italian ryegrass [1] = experiment: Test Example 3: weedkilling efficacy through soil treatment; I: Italian ryegrass
In short: (§1)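 Crop and weed responses were judged three weeks after a uniform surface spray of the water-diluted emulsion at the given g/ha rate. Seeds sat beneath about 1.5 cm of sterilized diluvial soil, and boxes stood in a greenhouse at 25 to 30° C.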

barnyard grass [2] = experiment: Test Example 1: weedkilling efficacy, preemergent weed treatment in the submerged state; A: barnyard grass
In short: (§2)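 Pre-emergence application onto floodwater (4 cm, alluvial soil) on the day of sowing, dose expressed as g/ha from diluted emulsion formulation. Weeds sown with 2.5-leaf transplanted rice as crop; plants held at 25–30 °C in greenhouse and scored against assessment criteria after 3 weeks.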

beet [3] = experiment: Test Example 3: soil treatment, effect on crop; f: beet
In short: as §1

barnyard grass [4] = experiment: Test Example 3: weedkilling efficacy through soil treatment; F: barnyard grass
In short: as §1

wheat [5] = experiment: Test Example 4: foliar treatment, effect on crop; e: wheat
In short: (§3)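 Seeds are spot-sown into sterilized diluvial soil and covered with about 1.5 cm of soil. After 14 days' greenhouse growth at 25 to 30° C, plants are sprayed on stems and leaves with diluted emulsion at the stated g/ha rate, then scored at 3 weeks.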

birds-eye speedwell [6] = experiment: Test Example 3: weedkilling efficacy through soil treatment; p: birds-eye speedwell
In short: as §1

rapeseed [7] = experiment: Test Example 3: soil treatment, effect on crop; g: rapeseed
In short: as §1

chickweed [8] = experiment: Test Example 4: weedkilling efficacy by foliar treatment; N: chickweed
In short: as §3

barnyard grass [9] = experiment: Test Example 2: weedkilling efficacy, growth period weed treatment in the submerged state; A: barnyard grass
In short: (§4)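 Weeds treated at the 1-2 leaf stage by application of diluted emulsion onto floodwater (4 cm depth, alluvial soil) at specified g/ha. Grown in greenhouse at 25 to 30° C; herbicidal effect rated three weeks after treatment.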

oval-leafed pondweed [10] = experiment: Test Example 2: weedkilling efficacy, growth period weed treatment in the submerged state; C: oval-leafed pondweed
In short: as §4

wild oat [11] = experiment: Test Example 3: weedkilling efficacy through soil treatment; G: wild oat
In short: as §1

rapeseed [12] = experiment: Test Example 4: foliar treatment, effect on crop; g: rapeseed
In short: as §3

soybean [13] = experiment: Test Example 3: soil treatment, effect on crop; d: soybean
In short: as §1

wild oat [14] = experiment: Test Example 4: weedkilling efficacy by foliar treatment; G: wild oat
In short: as §3

crabgrass [15] = experiment: Test Example 3: weedkilling efficacy through soil treatment; D: crabgrass
In short: as §1

redroot pigweed [16] = experiment: Test Example 4: weedkilling efficacy by foliar treatment; L: redroot pigweed
In short: as §3

directly sown rice [17] = experiment: Test Example 4: foliar treatment, effect on crop; b: directly sown rice
In short: as §3

catchweed = experiment: Test Example 4: weedkilling efficacy by foliar treatment; O: catchweed
In short: as §3

black-grass [18] = experiment: Test Example 4: weedkilling efficacy by foliar treatment; H: black-grass
In short: as §3

transplanted rice = experiment: Test Example 1: preemergent weed treatment in the submerged state, effect on crop; a: transplanted rice
In short: as §2

common wind-grass [19] = experiment: Test Example 4: weedkilling efficacy by foliar treatment; J: common wind-grass
In short: as §3

oval-leafed pondweed [20] = experiment: Test Example 1: weedkilling efficacy, preemergent weed treatment in the submerged state; C: oval-leafed pondweed
In short: as §2

bulrush [21] = experiment: Test Example 1: weedkilling efficacy, preemergent weed treatment in the submerged state; B: bulrush
In short: as §2

green foxtail [22] = experiment: Test Example 4: weedkilling efficacy by foliar treatment; E: green foxtail
In short: as §3

redroot pigweed [23] = experiment: Test Example 3: weedkilling efficacy through soil treatment; L: redroot pigweed
In short: as §1

beet [24] = experiment: Test Example 4: foliar treatment, effect on crop; f: beet
In short: as §3

black-grass [25] = experiment: Test Example 3: weedkilling efficacy through soil treatment; H: black-grass
In short: as §1

chickweed [26] = experiment: Test Example 3: weedkilling efficacy through soil treatment; N: chickweed
In short: as §1

Italian ryegrass [27] = experiment: Test Example 4: weedkilling efficacy by foliar treatment; I: Italian ryegrass
In short: as §3

Indian mallow [28] = experiment: Test Example 4: weedkilling efficacy by foliar treatment; K: Indian mallow
In short: as §3

green foxtail [29] = experiment: Test Example 3: weedkilling efficacy through soil treatment; E: green foxtail
In short: as §1

soybean [30] = experiment: Test Example 4: foliar treatment, effect on crop; d: soybean
In short: as §3

bulrush [31] = experiment: Test Example 2: weedkilling efficacy, growth period weed treatment in the submerged state; B: bulrush
In short: as §4

corn [32] = experiment: Test Example 3: soil treatment, effect on crop; c: corn
In short: as §1

directly sown rice [33] = experiment: Test Example 3: soil treatment, effect on crop; b: directly sown rice
In short: as §1

birds-eye speedwell [34] = experiment: Test Example 4: weedkilling efficacy by foliar treatment; p: birds-eye speedwell
In short: as §3

Indian mallow [35] = experiment: Test Example 3: weedkilling efficacy through soil treatment; K: Indian mallow
In short: as §1

wheat [36] = experiment: Test Example 3: soil treatment, effect on crop; e: wheat
In short: as §1

crabgrass [37] = experiment: Test Example 4: weedkilling efficacy by foliar treatment; D: crabgrass
In short: as §3

corn [38] = experiment: Test Example 4: foliar treatment, effect on crop; c: corn
In short: as §3

common wind-grass [39] = experiment: Test Example 3: weedkilling efficacy through soil treatment; J: common wind-grass
In short: as §1

barnyard grass [40] = experiment: Test Example 4: weedkilling efficacy by foliar treatment; F: barnyard grass
In short: as §3

CC1=C(c2ccccc2)C(=O)N(C(C)(C)C(=O)Nc2cccc(C(F)F)n2)CO1 [B-2-55]
I (Italian ryegrass) weedkilling efficacy grade (Italian ryegrass [1]): 5 (weed kill ratio 90% or more, (practically complete withering)) | A (barnyard grass) weedkilling efficacy grade (barnyard grass [2]): 5 (weed kill ratio 90% or more, (practically complete withering)) | f (beet) effect on crop grade (beet [3]): 3 (weed kill ratio 40% or more, less than 70%) | F (barnyard grass) weedkilling efficacy grade (barnyard grass [4]): 5 (weed kill ratio 90% or more, (practically complete withering)) | e (wheat) effect on crop grade (wheat [5]): 2 (weed kill ratio 20% or more, less than 40%) | P (birds-eye speedwell) weedkilling efficacy grade (birds-eye speedwell [6]): 5 (weed kill ratio 90% or more, (practically complete withering)) | g (rapeseed) effect on crop grade (rapeseed [7]): 2 (weed kill ratio 20% or more, less than 40%) | N (chickweed) weedkilling efficacy grade (chickweed [8]): 4 (weed kill ratio 70% or more, less than 90%) | A (barnyard grass) weedkilling efficacy grade (barnyard grass [9]): 5 (weed kill ratio 90% or more, (practically complete withering)) | C (oval-leafed pondweed) weedkilling efficacy grade (oval-leafed pondweed [10]): 5 (weed kill ratio 90% or more, (practically complete withering)) | G (wild oat) weedkilling efficacy grade (wild oat [11]): 4 (weed kill ratio 70% or more, less than 90%) | g (rapeseed) effect on crop grade (rapeseed [12]): 4 (weed kill ratio 70% or more, less than 90%) | d (soybean) effect on crop grade (soybean [13]): 3 (weed kill ratio 40% or more, less than 70%) | G (wild oat) weedkilling efficacy grade (wild oat [14]): 3 (weed kill ratio 40% or more, less than 70%) | D (crabgrass) weedkilling efficacy grade (crabgrass [15]): 5 (weed kill ratio 90% or more, (practically complete withering)) | L (redroot pigweed) weedkilling efficacy grade (redroot pigweed [16]): 4 (weed kill ratio 70% or more, less than 90%) | b (directly sown rice) effect on crop grade (directly sown rice [17]): 5 (weed kill ratio 90% or more, (practically complete withering)) | O (catchweed) weedkilling efficacy grade (catchweed): 5 (weed kill ratio 90% or more, (practically complete withering)) | H (black-grass) weedkilling efficacy grade (black-grass [18]): 5 (weed kill ratio 90% or more, (practically complete withering)) | a (transplanted rice) effect on crop grade (transplanted rice): 3 (weed kill ratio 40% or more, less than 70%) | J (common wind-grass) weedkilling efficacy grade (common wind-grass [19]): 5 (weed kill ratio 90% or more, (practically complete withering)) | C (oval-leafed pondweed) weedkilling efficacy grade (oval-leafed pondweed [20]): 5 (weed kill ratio 90% or more, (practically complete withering)) | B (bulrush) weedkilling efficacy grade (bulrush [21]): 5 (weed kill ratio 90% or more, (practically complete withering)) | E (green foxtail) weedkilling efficacy grade (green foxtail [22]): 5 (weed kill ratio 90% or more, (practically complete withering)) | L (redroot pigweed) weedkilling efficacy grade (redroot pigweed [23]): 4 (weed kill ratio 70% or more, less than 90%) | f (beet) effect on crop grade (beet [24]): 4 (weed kill ratio 70% or more, less than 90%) | H (black-grass) weedkilling efficacy grade (black-grass [25]): 5 (weed kill ratio 90% or more, (practically complete withering)) | N (chickweed) weedkilling efficacy grade (chickweed [26]): 4 (weed kill ratio 70% or more, less than 90%) | I (Italian ryegrass) weedkilling efficacy grade (Italian ryegrass [27]): 4 (weed kill ratio 70% or more, less than 90%) | K (Indian mallow) weedkilling efficacy grade (Indian mallow [28]): 4 (weed kill ratio 70% or more, less than 90%) | E (green foxtail) weedkilling efficacy grade (green foxtail [29]): 5 (weed kill ratio 90% or more, (practically complete withering)) | d (soybean) effect on crop grade (soybean [30]): 4 (weed kill ratio 70% or more, less than 90%) | B (bulrush) weedkilling efficacy grade (bulrush [31]): 5 (weed kill ratio 90% or more, (practically complete withering)) | c (corn) effect on crop grade (corn [32]): 0 (weed kill ratio 5% or less (practically no effect)) | b (directly sown rice) effect on crop grade (directly sown rice [33]): 4 (weed kill ratio 70% or more, less than 90%) | P (birds-eye speedwell) weedkilling efficacy grade (birds-eye speedwell [34]): 5 (weed kill ratio 90% or more, (practically complete withering)) | K (Indian mallow) weedkilling efficacy grade (Indian mallow [35]): 1 (weed kill ratio 5% or more, less than 20%) | e (wheat) effect on crop grade (wheat [36]): 0 (weed kill ratio 5% or less (practically no effect)) | D (crabgrass) weedkilling efficacy grade (crabgrass [37]): 5 (weed kill ratio 90% or more, (practically complete withering)) | c (corn) effect on crop grade (corn [38]): 4 (weed kill ratio 70% or more, less than 90%) | J (common wind-grass) weedkilling efficacy grade (common wind-grass [39]): 5 (weed kill ratio 90% or more, (practically complete withering)) | F (barnyard grass) weedkilling efficacy grade (barnyard grass [40]): 5 (weed kill ratio 90% or more, (practically complete withering))
